From patent US6916831B2, “Flavone acetic acid analogs and methods of use thereof” (The University of North Carolina at Chapel Hill, priority 2003, dated 2005)
Converted amounts (≈) assume the structure as drawn. Read-outs that look alike come from different tables or passages of the source.

How the values were obtained:
human lung cancer (A549) = experiment: Cytotoxicity, SRB assay, A549 cells; format: cell-based; details: 50% reduction in adsorbance at 562 nm relative to untreated cells
Method: (§1) Compounds 2-4 and 9-12 were evaluated in a tubulin polymerization assay and for cytotoxicity. Tubulin polymerization assays were performed as described in Y. Xia et al., J. Med. Chem. 1998, 41, 1155. Cytotoxic assays were performed as described in L. Rubinstein et al., J. Natl. Cancer Inst. 1990, 82, 1113-8.

tubulin polymerization = experiment: Tubulin polymerization assay (ITP); format: biochemical; details: for IC50: concentration that inhibits the extent of assembly by 50% after 20 min at 30° C.
Method: as §1

[1] = system: human melanoma cancer (SKMEL-2); experiment: Cytotoxicity, SRB assay, SKMEL-2 cells; format: cell-based; details: 50% reduction in adsorbance at 562 nm relative to untreated cells
Method: as §1

[2] = system: human breast cancer (MCF-7); experiment: Cytotoxicity, SRB assay, MCF-7 cells; format: cell-based; details: 50% reduction in adsorbance at 562 nm relative to untreated cells
Method: as §1

[3] = system: human ovarian cancer (1A9); experiment: Cytotoxicity, SRB assay, 1A9 cells; format: cell-based; details: 50% reduction in adsorbance at 562 nm relative to untreated cells
Method: (§2) Cytotoxic assays were performed as described in L. Rubinstein et al., J. Natl. Cancer Inst.

[4] = system: human epidermoid carcinoma of the nasopharynx (KB); experiment: Cytotoxicity, SRB assay, KB cells; format: cell-based; details: for ED50 KB: SRB assay, 50% reduction in adsorbance at 562 nm relative to untreated cells; for number in parentheses after the ED50 bound, KB: not defined in the patent, stands after the highest concentration (>20 or >10 μg/mL)
Method: as §1

bone carcinoma (HOS) = experiment: Cytotoxicity, SRB assay, HOS cells; format: cell-based, human; details: 50% reduction in adsorbance at 562 nm relative to untreated cells
Method: as §1

[5] = system: xenograft ovarian OVCAR-3; details: treated mice, xenograft ovarian OVCAR-3 model; cited from earlier work
[6] = system: seven human tumor cell lines; experiment: Cytotoxicity against seven human tumor cell lines (panel); format: cell-based; details: seven human tumor cell lines: epidermoid, bone, ovarian, glioblastoma, melanoma, lung, breast
Method: as §2

[7] = system: glioblastoma carcinoma (U-87-MG); experiment: Cytotoxicity, SRB assay, U-87-MG cells; format: cell-based, human; details: 50% reduction in adsorbance at 562 nm relative to untreated cells
Method: as §1

| IC50 (tubulin polymerization) | melting point | Compound | ED50 A549 (human lung cancer (A549)) | activity in the tubulin polymerization assay (in words) (tubulin polymerization) | ED50 SKMEL-2 [1] | ED50 MCF-7 [2] | ED50 1A9 [3] | ED50 KB [4] | number in parentheses after the ED50 bound, KB [4] | ED50 HOS (bone carcinoma (HOS)) | increase in life span [5] | fold more active in the tubulin polymerization assay (tubulin polymerization; compound 10 relative to the inactive 9 and 12 (IC50>40 μM)) | cytotoxicity in vitro (in words) [6] | ED50 U87-MG [7] | activity in the tubulin polymerization assay (in words) (tubulin polymerization; listed as 2-Phenyl-4-quinolone-8-acetic acid) |
| --- | --- | --- | --- | --- | --- | --- | --- | --- | --- | --- | --- | --- | --- | --- | --- |
| > 40 µM |  | O=C(O)Cc1cccc2[nH]c(-c3ccccc3F)cc(=O)c12 [Compound 2] | > 20 µg/mL | totally inactive | > 20 µg/mL | > 20 µg/mL |  |  |  |  |  |  |  |  |  |
| > 40 µM | 76 to 78 °C | COC(=O)Cc1cccc2c(=O)cc(-c3ccccc3)[nH]c12 [Compound 9, 2-Phenyl-4-quinolone-8-methyl acetate] |  |  | > 20 µg/mL | > 20 µg/mL | > 20 µg/mL | > 20 µg/mL | 8 | > 20 µg/mL |  |  |  |  |  |
|  |  | O=c1cc(-c2ccccc2F)[nH]c2cc3c(cc12)OCO3 [Compound 1] |  |  |  |  |  |  |  |  | 130% |  |  |  |  |
| ~10 µM |  | COC(=O)Cc1cccc2c(O)cc(-c3ccccc3F)nc12 [Compound 10] | > 10 µg/mL |  | > 10 µg/mL | > 10 µg/mL | 7.50 µg/mL (≈ 24.1 µM) | > 10 µg/mL | 29 | > 10 µg/mL |  | about 4 fold | selective activity against ovarian cancers |  |  |
| > 40 µM | 243 to 245 °C | O=C(O)Cc1cccc2c1N=C(c1ccccc1F)CC2=O [Compound 12, 2-(2′-Fluorophenyl)-4-quinolone-8-acetic acid] | 0.06 µg/mL (≈ 0.202 µM) | not inhibitors of tubulin polymerization | 0.05 µg/mL (≈ 0.168 µM) | 0.12 µg/mL (≈ 0.404 µM) | 0.02 µg/mL (≈ 0.0673 µM) | 0.03 µg/mL (≈ 0.101 µM) |  | 0.04 µg/mL (≈ 0.135 µM) |  |  | extremely potent | 0.07 µg/mL (≈ 0.235 µM) |  |
| > 40 µM |  | O=C(O)Cc1cccc2c1N=C(c1ccccc1)CC2=O [Compound 11, 2-Phenyl-4-quinolone-8-acetic acid] | 0.11 µg/mL (≈ 0.394 µM) | totally inactive | 0.06 µg/mL (≈ 0.215 µM) | 0.44 µg/mL (≈ 1.58 µM) | 0.04 µg/mL (≈ 0.143 µM) | 0.04 µg/mL (≈ 0.143 µM) |  | 0.07 µg/mL (≈ 0.251 µM) |  |  | extremely potent | 0.12 µg/mL (≈ 0.43 µM) | not inhibitors of tubulin polymerization |
| 20 to 40 µM |  | O=C(O)Cc1ccc2c(=O)cc(-c3ccccc3F)[nH]c2c1 [Compound 4] | > 20 µg/mL | totally inactive | > 20 µg/mL | > 20 µg/mL | > 20 µg/mL | > 20 µg/mL | 8 |  |  |  |  |  |  |
| 10 to 20 µM |  | 2-Phenyl-4-quinolone-6-acetic acid [Compound 3] | > 20 µg/mL |  | > 20 µg/mL | > 20 µg/mL | > 20 µg/mL | > 20 µg/mL | 36 | > 20 µg/mL |  |  |  | > 20 µg/mL |  |
